Reference: ChEMBL document CHEMBL4480461, “Karamomycins A-C: 2-Naphthalen-2-yl-thiazoles from Nonomuraea endophytica” (J Nat Prod, 2019)
Calls of active or inactive are those of the source.

Columns and labels:
Format in all cases: functional, organism-based
[1] = test system: Escherichia coli; assay: Antimicrobial activity against Escherichia coli at 40 ug/disc by agar diffusion method
[2] = test system: Bacillus subtilis; assay: Antimicrobial activity against Bacillus subtilis ATCC 6051 at 40 ug/disc by agar diffusion method
[3] = test system: Streptomyces viridochromogenes; assay: Antimicrobial activity against Streptomyces viridochromogenes Tue57 at 40 ug/disc by agar diffusion method
[4] = test system: Rhizomucor miehei; assay: Antimicrobial activity against Mucor miehei Tu 284 at 40 ug/disc by agar diffusion method
[5] = test system: Desmodesmus subspicatus; assay: Antimicrobial activity against Scenedesmus subspicatus at 40 ug/disc by agar diffusion method
[6] = test system: Staphylococcus aureus; assay: Antimicrobial activity against Staphylococcus aureus at 40 ug/disc by agar diffusion method
[7] = test system: Chlorella sorokiniana; assay: Antimicrobial activity against Chlorella sorokiniana at 40 ug/disc by agar diffusion method
[8] = test system: Candida albicans; assay: Antimicrobial activity against Candida albicans at 40 ug/disc by agar diffusion method
[9] = test system: Chlorella vulgaris; assay: Antimicrobial activity against Chlorella vulgaris at 40 ug/disc by agar diffusion method

Measured: Activity

COc1cc(C2=N[C@H]([C@@H]3SC[C@H]4[C@@H]5SC[C@](C)(C(=O)N43)N5C)CS2)c(O)c2ccccc12
inactive: all assays above

COc1cc(C2=N[C@H](CO)CS2)c(O)c2ccccc12
inactive: all assays above

COc1cc(-c2nc(CO)cs2)c(O)c2ccccc12
inactive: all assays above
